Test [1] has as its target T1, PRMT5 (Homo sapiens, UniProt O14744).
T1 construct: purchased Viva (custom protein)
Put plainly: PRMT5 biochemical IC50 assay with MTA as cofactor. The following applies: PRMT5, MTA as cofactor; read-out: MTA IC50.

Test [2] concerns HAP1 MTAP-deleted cell line. Put plainly: Viability assay, MTAP-deleted cell line. The format is cell-based. The following applies: read-out: HAP1 MTAP deleted viability. An excerpt:
Table 1 additionally indicates IC50 values in a viability assay for the MTAP-deleted cell line (column 10), indicating the effect of treatment with compound on cell survival.

Test [3] has as its system HAP1 MTAP-intact cell line. Put plainly: SDMA in-cell western assay, HAP1 MTAP-intact. The format is cell-based. Particulars: HAP1 MTAP-intact, read-out: MTAP HAP1 intact IC50. The method, boiled down:
(§1)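 Compounds were tested in HAP1 cells differing only in MTAP status (endogenous expression versus null). Cellular SDMA levels were then measured by in-cell western, giving an IC50 in each background.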

The target in test [4] is T1, PRMT5. Put plainly: PRMT5 biochemical IC50 assay with SAM as cofactor. The following applies: PRMT5, SAM as cofactor; read-out: SAM IC50.
Test [5] deals with T1, PRMT5. Put plainly: PRMT5 biochemical IC50 assay with no cofactor. The following applies: PRMT5, no cofactor. An excerpt: Table 1 indicates IC50 values (μM) against PRMT5 for exemplary compounds in the presence of SAM as cofactor, with no cofactor, and with MTA as cofactor, respectively (columns 4-6). […] Ki values can be calculated from the IC50 values as described in the Examples section. As detailed in the Examples section, for the assay performed in the presence of SAM, IC50=Ki×1.5 (Ki=IC50/1.5).

The test system of test [6] is HAP1 MTAP-deleted cell line. Put plainly: SDMA in-cell western assay, HAP1 MTAP-deleted. The format is cell-based. The following applies: for IC50: HAP1 MTAP-deleted. The gist of the method:
as §1

[7] abbreviates: Homo sapiens, HAP1, viability assay, MTAP-deleted cell line.
[8] abbreviates: Homo sapiens, HAP1, SDMA in-cell western.
The mark [9] stands for this setting: Homo sapiens, HAP1, SDMA in-cell western, read-out: HAP 1 MTAP deleted IC50.
Where [10] appears, read: IC50 ratio HAP1 MTAP-intact / HAP1 MTAP-deleted, SDMA in-cell western.
[11] abbreviates: Homo sapiens, HAP1, viability, HAP1 MTAP-deleted cell line.
Where [12] appears, read: read-out: No Cofactor/ rel IC50.
[13] abbreviates: Homo sapiens, HAP1, SDMA in-cell western, read-out: HAP1 MTAP deleted IC50.
Where [14] appears, read: IC50 ratio HAP1 MTAP-intact vs HAP1 MTAP-deleted, SDMA in-cell western.

This note sets out measurements from patent US11999727B2 (Tango Therapeutics, Inc., priority 2020, dated 2024).

The structures appear in SMILES notation. Read-outs that look alike come from different tables or passages of the source.

T1 sequence (O14744 whole entry): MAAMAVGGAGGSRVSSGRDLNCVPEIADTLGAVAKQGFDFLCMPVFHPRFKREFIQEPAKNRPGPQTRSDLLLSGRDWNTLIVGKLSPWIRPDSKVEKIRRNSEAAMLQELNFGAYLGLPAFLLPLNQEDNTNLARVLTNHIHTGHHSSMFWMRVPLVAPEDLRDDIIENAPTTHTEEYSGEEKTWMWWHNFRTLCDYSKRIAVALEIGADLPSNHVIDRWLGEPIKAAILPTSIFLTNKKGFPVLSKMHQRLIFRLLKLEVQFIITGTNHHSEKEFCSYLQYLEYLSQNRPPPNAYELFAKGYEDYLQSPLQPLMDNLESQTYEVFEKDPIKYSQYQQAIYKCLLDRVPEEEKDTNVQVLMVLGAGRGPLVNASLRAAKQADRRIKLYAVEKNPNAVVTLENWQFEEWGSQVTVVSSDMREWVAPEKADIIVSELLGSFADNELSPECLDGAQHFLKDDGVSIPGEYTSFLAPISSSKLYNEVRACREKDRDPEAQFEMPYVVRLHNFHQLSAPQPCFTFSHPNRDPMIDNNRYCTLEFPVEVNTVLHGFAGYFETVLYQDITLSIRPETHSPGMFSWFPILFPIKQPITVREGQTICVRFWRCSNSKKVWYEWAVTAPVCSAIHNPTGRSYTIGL
T1 sequence (Q9BQA1 whole entry partner): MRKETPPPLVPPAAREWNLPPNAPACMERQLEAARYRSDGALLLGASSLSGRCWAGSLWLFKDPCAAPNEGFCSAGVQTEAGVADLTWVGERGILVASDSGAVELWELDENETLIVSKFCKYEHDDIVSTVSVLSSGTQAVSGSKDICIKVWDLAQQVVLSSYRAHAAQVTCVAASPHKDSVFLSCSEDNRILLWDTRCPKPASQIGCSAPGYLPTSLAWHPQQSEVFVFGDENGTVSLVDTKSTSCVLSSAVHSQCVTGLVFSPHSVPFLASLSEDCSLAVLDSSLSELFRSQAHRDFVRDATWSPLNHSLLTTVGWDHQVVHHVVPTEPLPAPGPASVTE

`C[C@H]1CC[C@H](c2cc[nH]n2)N(C(=O)C(=O)Nc2cncc(C(N)=O)c2)C1` (single isomer, unassigned) [Compound 978]: the IC50 was 50 to 500 nM at PRMT5 [1]; > 10000 nM in test [2] (setting [7]); > 1000 nM in test [3] (setting [8]); > 500 nM at PRMT5 [4]; 50 to 500 nM on PRMT5 [5] (read-out: No Cofactor/rel IC50); > 1000 nM in test [6] (setting [9]). The MTAP intact/deleted ratio result in test [6] (setting [10]) was “C (an IC50 ratio of less than 3 fold)”.
Turning to `Cc1cc(NC(=O)C(=O)N2C[C@H](C)CC[C@H]2c2ccc(-c3cncs3)cc2)cnc1N` (single isomer, unassigned) [Compound 900, N-(6-amino-5-methylpyridin-3-yl)-2-(5-methyl-2-(4-(thiazol-5-yl)phenyl)piperidin-1-yl)-2-oxoacetamide], the IC50 was > 500 nM on PRMT5 [1]; > 10000 nM in test [2] (setting [7]); > 1000 nM in test [3] (setting [8]); > 500 nM on PRMT5 [4]; > 500 nM at PRMT5 [5] (read-out: No Cofactor/rel IC50); > 1000 nM in test [6] (setting [9]). In addition, in test [6] (setting [10]), the MTAP intact/deleted ratio result is reported as “C (an IC50 ratio of less than 3 fold)”.
`C[C@H]1CC[C@H](c2ccc3sc(CN(C)C)nc3c2)N(C(=O)C(=O)Nc2cnc(N)c(C3CC3)c2)C1` [Compound 1354, N-(6-Amino-5-cyclopropyl-3-pyridyl)-2-[(2R,5S)-2-[2-[(dimethylamino)methyl]-1,3-benzothiazol-5-yl]-5-methyl-1-piperidyl]-2-oxo-acetamide]: the IC50 on PRMT5 [1] is < 50 nM; in test [2] (setting [11]), < 1000 nM; in test [3] (setting [8]), < 100 nM; at PRMT5 [4], 50 to 500 nM; at PRMT5 [5] (setting [12]), < 50 nM; in test [6] (setting [9]), < 100 nM. Besides, the “MTAP intact/deleted ratio” value in test [6] (setting [10]) is reported as “A (an IC50 ratio greater than or equal to 10 fold)”.
In the case of `CCc1cc(NC(=O)C(=O)N2C[C@@H](C)CC[C@@H]2c2ccc3sc([C@H]4CCN(C)C(=O)C4)nc3c2)cnc1N` (single isomer, unassigned) [Compound 1136], the IC50 at PRMT5 [1] was < 50 nM; in test [2] (setting [7]), < 1000 nM; in test [3] (setting [8]), 100 to 1000 nM; at PRMT5 [4], 50 to 500 nM; at PRMT5 [5] (read-out: No Cofactor/rel IC50) it was < 50 nM; in test [6] (setting [13]), < 100 nM. Also, the MTAP intact/deleted ratio entry in test [6] (setting [14]) was “A (an IC50 ratio greater than or equal to 10 fold)”.
On to `CCN1CCC(c2nc3cc([C@H]4CC[C@H](C)CN4C(=O)C(=O)Nc4cnc(OC)c(C(N)=O)c4)ccc3s2)CC1` [Compound 1164, 5-(2-((2R,5)-2-(2-(1-ethylpiperidin-4-yl)benzo[d]thiazol-5-yl)-5-methylpiperidin-1-yl)-2-oxoacetamido)-2-methoxynicotinamide], for which the IC50 on PRMT5 [1] is < 50 nM; in test [2] (setting [7]), < 1000 nM; in test [3] (setting [8]), 100 to 1000 nM; at PRMT5 [4], < 50 nM; at PRMT5 [5] (read-out: No Cofactor/rel IC50) it was < 50 nM; in test [6] (setting [13]), < 100 nM. Besides, in test [6] (setting [14]), the MTAP intact/deleted ratio result is listed as “A (an IC50 ratio greater than or equal to 10 fold)”.
On to `Cc1cc(NC(=O)C(=O)N2CC(C)(C)CCC2c2ccccc2)cnc1N` (single isomer, unassigned) [Compound 52, N-(6-amino-5-methylpyridin-3-yl)-2-(5,5-dimethyl-2-phenylpiperidin-1-yl)-2-oxoacetamide], for which the IC50 on PRMT5 [1] was < 50 nM; in test [2] (viability assay, MTAP-deleted cell line), 1000 to 10000 nM; in test [3] (SDMA in-cell western) it was 100 to 1000 nM; on PRMT5 [4], 50 to 500 nM; at PRMT5 [5] (setting [12]), 50 to 500 nM; in test [6] (SDMA in-cell western, read-out: HAP 1 MTAP deleted IC50), < 100 nM. The “MTAP intact/deleted ratio” value in test [6] (setting [10]) was “A (an IC50 ratio greater than or equal to 10 fold)”.
For `COc1ccccc1[C@@H]1CC[C@@H](C)CN1C(=O)C(=O)Nc1cncc(C(N)=O)c1` (racemic) [Compound 558, 5-[[2-[(2S,5R)-2-(2-Methoxyphenyl)-5-methyl-1-piperidyl]-2-oxo-acetyl]amino]pyridine-3-carboxamide], the IC50 was 50 to 500 nM at PRMT5 [1]; > 10000 nM in test [2] (Homo sapiens, HAP1, viability IC50, MTAP-deleted cell line); > 1000 nM in test [3] (setting [8]); 50 to 500 nM on PRMT5 [4]; > 500 nM at PRMT5 [5] (read-out: No Cofactor/rel IC50); 100 to 1000 nM in test [6] (setting [9]). Also, in test [6] (setting [10]), the MTAP intact/deleted ratio result was “A (an IC50 ratio greater than or equal to 10 fold)”.
On to `CCc1cc(NC(=O)C(=O)N2C[C@@H](C)CC[C@@H]2c2ccc3c(c2)C(=O)N(C2CCN(C)CC2)C3)cnc1N` (racemic) [Compound 1272, N-(6-amino-5-ethyl-3-pyridyl)-2-oxo-2-[rac-(2R,5S)-5-methyl-2-[2-(1-methyl-4-piperidyl)-3-oxo-isoindolin-5-yl]-1-piperidyl]acetamide], for which the IC50 on PRMT5 [1] was < 50 nM; in test [2] (setting [11]) it was < 1000 nM; in test [3] (setting [8]), 100 to 1000 nM; on PRMT5 [4], 50 to 500 nM; on PRMT5 [5] (setting [12]), < 50 nM; in test [6] (setting [9]) it was < 100 nM. In addition, the “MTAP intact/deleted ratio” value in test [6] (setting [10]) was “A (an IC50 ratio greater than or equal to 10 fold)”.
`CCc1cc(NC(=O)C(=O)N2C[C@@H](C)CC[C@@H]2c2ccc3sc(C4CCN(CCC(F)(F)F)CC4)nc3c2)cnc1N` [Compound 1124, N-(6-amino-5-ethylpyridin-3-yl)-2-((2R,5S)-5-methyl-2-(2-(1-(3,3,3-trifluoropropyl)piperidin-4-yl)benzo[d]thiazol-5-yl)piperidin-1-yl)-2-oxoacetamide]: the IC50 on PRMT5 [1] was < 50 nM; in test [2] (setting [7]), < 1000 nM; in test [3] (setting [8]) it was < 100 nM; on PRMT5 [4], 50 to 500 nM; on PRMT5 [5] (read-out: No Cofactor/rel IC50) it was < 50 nM; in test [6] (setting [13]), < 100 nM. Besides, in test [6] (setting [14]), the MTAP intact/deleted ratio result is on record as “B (an IC50 ratio greater than or equal to 3 fold but lower than 10 fold)”.
For `O=C(Nc1cncc(CO)c1)C(=O)N1CCCCC1c1ccccc1` (stereo not drawn) [Compound 136, N-(5-(hydroxymethyl)pyridin-3-yl)-2-oxo-2-(2-phenylpiperidin-1-yl)acetamide], the IC50 was > 500 nM at PRMT5 [1]; > 10000 nM in test [2] (setting [7]); > 1000 nM in test [3] (setting [8]); > 500 nM at PRMT5 [4]; > 500 nM at PRMT5 [5] (setting [12]); > 1000 nM in test [6] (setting [9]). In addition, in test [6] (setting [10]), the “MTAP intact/deleted ratio” value was “C (an IC50 ratio of less than 3 fold)”.
`Cc1cc(NC(=O)C(=O)N2CCCC[C@H]2c2ccccc2)cnc1N` (single isomer, unassigned) [Compound 55]: the IC50 on PRMT5 [1] is 50 to 500 nM; in test [2] (setting [7]), > 10000 nM; in test [3] (setting [8]), > 1000 nM; on PRMT5 [4], > 500 nM; on PRMT5 [5] (setting [12]) it was > 500 nM; in test [6] (setting [9]), > 1000 nM. For the same compound, the “MTAP intact/deleted ratio” value in test [6] (setting [10]) is on record as “C (an IC50 ratio of less than 3 fold)”.
Turning to `CCc1cc(NC(=O)C(=O)N2C[C@@H](C)CC[C@@H]2c2ccc3sc([C@H]4CCN(C)C(C)(C)C4)nc3c2)cnc1N` (single isomer, unassigned) [Compound 1129], the IC50 at PRMT5 [1] is < 50 nM; in test [2] (setting [7]), < 1000 nM; in test [3] (setting [8]) it was < 100 nM; on PRMT5 [4], 50 to 500 nM; on PRMT5 [5] (read-out: No Cofactor/rel IC50), < 50 nM; in test [6] (setting [13]), < 100 nM. Also, in test [6] (setting [14]), the MTAP intact/deleted ratio entry is recorded as “B (an IC50 ratio greater than or equal to 3 fold but lower than 10 fold)”.
